Data reported in patent US20060263830A1, “Interfacial biomaterials” (priority 2001, published 2006).

Columns and labels:
[1] = AFM pull-off force measurements on polystyrene; format: binding; conditions: peptide on gold-coated AFM cantilever, PBS buffer, 300 nm/sec
Excerpt: The adhesion strength and mode of binding are both IFBM and substrate dependent. To characterize and quantify the adhesion forces between IFBMs and synthetic and biological substrates, a state-of-the-art force spectrometer that employs a high precision, piezo driven flexure stage equipped with a capacitive displacement sensor with a position resolution of about 0.5 nm was used. A polystyrene binding peptide from the X6YX6 peptide library was used (a cysteine-terminated peptide containing the polystyrene-binding domain in the forward direction; CGSSLVGLHSYWSSPFF; SEQ ID NO:117). The cysteine-terminated peptides were then linked to a gold-coated atomic force microscope (AFM) cantilever by incubating the cantilever in a solution of the peptide (1 mg/ml). Pull-off force measurements were carried out in PBS buffer solution on a MultiMode AFM (Digital Instruments, now Veeco Instruments, Inc., Woodbury, N.Y., United States of America) by repeatedly engaging a polystyrene surface with the modified cantilever tip at a speed of 300 nm/sec. The mean adhesion force for the peptide was approximately 300 pN.

[2] = system: adult human dermal fibroblasts (NHDFs); experiment: NHDF adhesion to IFBM-coated polystyrene; format: cell-based
Description: (§1) First, a 1.0 mg/ml solution of FFPYSHLGVLSSG-PEG (SEQ ID NO:104) was prepared in water. The solution was added to the wells of a 96 well polystyrene culture plate and incubated at 50° C. overnight. The wells were then washed twice with PBS before seeding with 300 μl of either cell type. Human fibroblast and endothelial cells were also seeded on untreated polystyrene (N=3) and peptide (non-pegylated) coated polystyrene (N=3). After overnight incubation at 37° C., the wells were washed 5 times in excess PBS, then fixed in ethanol and stained with eosin Y for cell counting and optical microscopy. Both NHDF and HUVEC cells lose their rounded morphology, spread, and adhere to the untreated control plastic. At higher magnification, marked membrane ruffling is evident.

[3] = system: human umbilical vein endothelial cells (HUVECs); experiment: HUVEC adhesion to IFBM-coated polystyrene; format: cell-based
Description: as §1

[4] = system: human umbilical vein endothelial cells (HUVECs); experiment: HUVEC adhesion and spreading on binding-agent-coated polystyrene wells; format: cell-based; conditions: 25 mg/mL coating; light microscopy after 1-hour, 2-hour or overnight culture; vs polystyrene-binding peptide lacking cell-binding domain or uncoated
Description: A 25 mg/mL solution was prepared using a binding agent comprising the peptide sequence RGDFLSFVFPASAWGG (SEQ ID NO:72) in a mixture of 90 parts PBS pH 7.4 and 10 parts DMSO. Fifty (50) μl of the binding agent solution was to each of three wells of a 96-well polystyrene microtiter plate for a duration of 1 hour. In another 3 wells, 50 μl of a control peptide 25 mg/ml fluorescein-labeled FLSFVFPASAWGG (SEQ ID NO:1) was added. The wells were washed three times with PBS and non-specific protein binding sites were blocked with sterile-filtered BSA (3% in PBS) for 30 minutes with shaking at 25 rpm. […] Following 4 washes with PBS, human umbilical vein endothelial cells (HUVECs) in supplemented EBM media were seeded onto each well. Cell adhesion and spreading was monitored by light microscopy following a 1-hour, 2-hour, or overnight culture.

[5] = system: Human chondrocytes; experiment: Cell panning of phage library on chondrocytes; format: cell-based; conditions: phage-displayed peptide
Excerpt: The SCX16S library (described in Example 1) was screened for binding to chondrocytes. The peptides of the library were of the format SCX16S, including 16 central random amino acids, terminal fixed serines and a single cysteine residue.
Human chondrocytes were obtained from Clonetics, Inc. (San Diego, Calif., United States of America) and grown to confluency on one well of a polystyrene 6-well plate in supplemented F-12 media (Sigma-Aldrich Corp., St. Louis, Mo., United States of America). The entire cell panning procedure was free of detergent. The library was pre-cleared of phage that specifically or non-specifically bind polystyrene by incubating phage in polystyrene wells for two hours prior to addition to the cellular target. In each round, nonspecific binding sites were blocked using 5% dry milk in PBS. Phage were detected, isolated, amplified, and sequenced as described in Example 2. A representative peptide has the sequence SCSVYDHKIGRDSFYSGCS (SEQ ID NO:101). A representative peptide also has a preference for chondrocytes greater than 10 fold over endothelial cells.

[6] = Phage panning and ELISA for binding to polyurethane; conditions: phage-displayed peptide, SCX16S library
Description: To detect phage that specifically bound to titanium, conventional ELISAs were performed using an anti-M13 phage antibody conjugated to HRP, followed by the addition of chromogenic agent o-phenylenediamine in 10% hydrogen peroxide. Relative binding strengths of the phage were determined by absorbance measurements at 490 nm using a microtiter plate reader.
The SCX16S library (described in Example 1) was screened for binding to polyurethane. Phage were detected, isolated, amplified, and sequenced as described in Example 2.

[7] = 1.0 mg/ml coating, overnight incubation at 37° C.
[8] = coated vs untreated polystyrene

CGSSLVGLHSYWSSPFF (Polystyrene-binding peptide 117) [SEQ ID NO:117]
mean adhesion force [1]: approximately 300 pN

FFPYSHLGVLSSG-PEG (PEG conjugated; Polystyrene-binding peptide 104) [SEQ ID NO:104, multi-functional peptide or interfacial biomaterial (IFBM) with PEG cell-repelling segment]
cell morphology and attachment on treated polystyrene [2, 7]: maintain a round morphology and are not tightly adhered to the surface
cell adhesion (cell counting) [2, 8]: substantially lessened
cell number (cell counting) [2, 8]: dramatically reduced
cell morphology and attachment on treated polystyrene [3, 7]: maintain a round morphology and are not tightly adhered to the surface
cell adhesion (cell counting) [3, 8]: substantially lessened
cell number (cell counting) [3, 8]: dramatically reduced

FLSFVFPASAWGGSSGRGD [SEQ ID NO:72]
cell adhesion and spreading [4]: increased cell adhesion and cell spreading

SCSVYDHKIGRDSFYSGCS (Chondrocyte-binding peptide 101) [SEQ ID NO:101]
preference for chondrocytes over endothelial cells [5]: greater than 10 fold

SCYVNGHNSVWVVVFWGVS (Polyurethane-binding peptide 1) [SEQ ID NO:23]
specific binding to polyurethane [6]: specifically binds
